Our source for the Ki and IC50 values is patent publication EP0584223B1, “NOVEL IMMUNOSUPPRESSIVE COMPOUNDS” (VERTEX PHARMACEUTICALS INCORPORATED, priority 1991, dated 1992).

One assay deals with FKBP (Homo sapiens, UniProt P62942). Nature of the assay: Inhibition of FKBP PPIase (rotamase) activity, chymotrypsin-coupled assay. The following applies: apparent Ki. The class given is biochemical. From the text: The inhibition of the PPIase (rotamase) enzyme activity of the FKBP (apparent "Ki" values) can also be measured according to the methods described by either Harding, M.W. et al., Nature 341:758-760 (1989) or Siekierka, J.J. et al., Nature 341:755-757 (1989). The cis-trans isomerization of the […] peptide bond in a model substrate, N-succinyl-Ala-Ala-Pro-Phe-p-nitroanilide, is monitored spectrophotometrically in a coupled assay with chymotrypsin, which releases 4-nitroanilide from the trans form of the substrate. Fischer, G. et al., Nature 337:476-478 (1989). The inhibitory effect of the addition of different concentrations of inhibitor on the extent of the reaction is determined, and analysis of the change in first order rate constant as a function of inhibitor concentration yields an estimate of the apparent Ki value.
Chain of FKBP (P62942 whole entry): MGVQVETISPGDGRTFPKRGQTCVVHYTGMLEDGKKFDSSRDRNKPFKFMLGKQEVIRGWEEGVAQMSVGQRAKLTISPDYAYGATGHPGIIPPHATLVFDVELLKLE

Assay [1] has as its system human peripheral blood lymphocytes (PBC). Nature of the assay: Mitogenesis assay, PMA plus ionomycin stimulated proliferation. The class given is cell-based. The following applies: Lymphocyte, read-out: PMA.
Text: (§4) Fresh peripheral blood lymphocytes (PBLs) from LeukoPak cells or whole blood from random normal blood donors (tested HIV-negative and hepatitis negative) are isolated and separated by density centrifugation over Histopaque 1077 (Sigma Chemical Co., St. Louis, MO). […] The human allogeneic B cell lines used for activation of the fresh PBLs are EBV-transformed lymphocytes from normal healthy adult donors with two completely different HLA haplotypes. All cell lines were routinely tested for the presence of Mycoplasma contamination using the Gibco Mycotect test kit and are Mycoplasma-free. Culture medium consists of RPMI 1640 (Gibco, Grand Island, NY) containing penicillin (50 U/ml) and streptomycin (50 µg/ml), L-glutamine 2 mM, 2 mercaptoethanol (5 x 10^-5), 10% heat-inactivated FCS and 10 mM HEPES.
Assay [2] has the same test system. Nature of the assay: Mitogenesis assay, OKT3 stimulated proliferation. The class given is cell-based. The following applies: Lymphocyte, OKT3 (10^-4 dilution final), inhibition of proliferation, 3H-thymidine, read-out: OKT3.
Text: as §4
Assay [3] deals with PBLs stimulated with LB human viral-transformed B lymphoblastoid cell line. Nature of the assay: MLR bioassay, PBLs stimulated with LB cells. The class given is cell-based. Particulars: mixed lymphocyte reaction, LB stimulator cells, inhibition of proliferation, read-out: LB. The source says: (§1) Fresh peripheral blood lymphocytes (PBLs) from LeukoPak cells or whole blood from random normal blood donors (tested HIV-negative and hepatitis negative) are isolated and separated by density centrifugation over Histopaque 1077 (Sigma Chemical Co., St. Louis, MO). The murine CTLL cytotoxic T cell line and the human Jurkat T cell line are from ATCC (CTLL-2 ATCC TIB214, JURKAT CLONE E6-1 ATCC TIBl52). The human allogeneic B cell lines used for activation of the fresh PBLs are EBV-transformed lymphocytes from normal healthy adult donors with two completely different HLA haplotypes. All cell lines were routinely tested for the presence of Mycoplasma contamination using the Gibco Mycotect test kit and are Mycoplasma-free. Culture medium consists of RPMI 1640 (Gibco, Grand Island, NY) containing penicillin (50 U/ml) and streptomycin (50 µg/ml), L-glutamine 2 mM, 2 mercaptoethanol (5 x 10^-5), 10% heat-inactivated FCS and 10 mM HEPES.
(§2) All chemical stocks were dissolved in DMSO.
(§3) Antigen activated proliferation of PBLs in a primary mixed lymphocyte reaction was assessed in the presence or absence of different concentrations of tested compounds and control drugs. 5 x 10^4 fresh PBLs were stimulated with 5 x 10^3 of Mitomycin C treated-allogeneic EBV-transformed […] cells, LB and JVM, in a final volume of 200 µl per well in 96-well round-bottomed plates (Mishell, B.B. and S.M. Shiigi, Selected Methods in Cellular Immunology W.H. Freeman and Co., San Francisco, CA (1980); Nelson, P.A. et al., Transplantation 50:286 (1990)). Cultures were pulsed on day 6, harvested 24 h later and counted as in previous section.

In assay [4] the test system is PBLs stimulated with JVM human viral-transformed B lymphoblastoid cell line. Nature of the assay: MLR bioassay, PBLs stimulated with JVM cells. The class given is cell-based. The following applies: mixed lymphocyte reaction, JVM stimulator cells, inhibition of proliferation, read-out: JVM.
Text: as §1, §2, §3

The test system of assay [5] is CTLL-20 murine T cell line. Nature of the assay: IL-2 microassay, IL-2 dependent CTLL proliferation. The class given is cell-based. The following applies: Mus musculus; inhibition of proliferation of cytotoxic T cells stimulated by IL-2; read-out: CTLL.
Text: as §4

Molecules are shown by their SMILES.

Consider `COc1cc(C(=O)C(=O)N2CCCC[C@H]2C(=O)OC(CCCc2ccccc2)c2cccc(Oc3ccccc3)c2)cc(OC)c1OC` (mixture of isomers) [Compound 4, (R and S)-1-(3-Phenoxy)phenyl-4-phenyl-1-butyl (S)-N-(3,4,5-trimethoxyphenylglyoxyl)pipecolate], for which the Ki at FKBP was 0.22 µM. The IC50 in assay [1] (3 h), in assay [2], in assay [3], in assay [4] and in assay [5] was over 10 µM in each case.

For `COc1cc(C(=O)C(=O)N2CCCC[C@H]2C(=O)OC(CCCc2ccccc2)CCc2cccnc2)cc(OC)c1OC` (mixture of isomers) [Compound 7, (R and S)-6-Phenyl-1-(3-pyridyl)-3-hexyl (S)-N-(3,4,5-trimethoxyphenylglyoxyl)pipecolate], the IC50 was determined as 2 µM in assay [1] (3 h); 2 µM in assay [2]; 5 µM in assay [3]; 5 µM in assay [4]; 2 µM in assay [5].

`COc1cc(C(=O)C(=O)N2CCCC[C@H]2C(=O)OC(CCCc2ccccc2)CCCc2cccnc2)cc(OC)c1OC` (mixture of isomers) [Compound 9, (R and S)-1-Phenyl-7-(3-pyridyl)-4-heptyl (S)-N-(3,4,5-trimethoxyphenylglyoxyl)pipecolate]: the IC50 in assay [1] (3 h) was 1.8 µM; in assay [2], 1.2 µM; in assay [3] it was 6 µM; in assay [4], 6 µM; in assay [5] it was 2.5 µM.

In the case of `COc1cc(C(=O)C(=O)N2CCCC[C@H]2C(=O)OC(CCCc2c[nH]c3ccccc23)Cc2ccccc2)cc(OC)c1OC` (mixture of isomers) [Compound 11, (R and S)-5-(3-indolyl)-1-phenyl-2-pentyl (S)-N-(3,4,5-trimethoxyphenylglyoxyl)pipecolate], the Ki at FKBP was found to be 0.024 µM. In addition, the IC50 in assay [1] (3 h) is 2.7 µM; in assay [2], 2 µM; in assay [3], 3.5 µM; in assay [4], 6.5 µM; in assay [5], 10 µM.

Regarding `COc1cc(C(=O)C(=O)N2CCCC[C@H]2C(=O)OCC(CCc2ccccc2)Cc2ccccc2)cc(OC)c1OC` (mixture of isomers) [Compound 16, (R and S)-2-Benzyl-4-phenyl-1-butyl (S)-N-(3,4,5-trimethoxyphenylglyoxyl)pipecolate], the Ki at FKBP came to 0.057 µM. The IC50 in assay [1] (3 h) was 5 µM; in assay [2], 7 µM; in assay [3], 9 µM; in assay [4] it was over 10 µM; in assay [5], 6 µM.

Take `CC(C)(C)C(=O)C(=O)N1CCCC[C@H]1C(=O)OC(CCCc1ccccc1)CCCc1ccccn1` (mixture of isomers) [Compound 21, (R and S)-1-Phenyl-7-(2-pyridyl)-4-heptyl (S)-N-(tert-butylglyoxyl)-pipecolate]: the Ki on FKBP came out at 0.036 µM. Also, the IC50 was 7 µM in assay [1] (3 h); 3 µM in assay [2]; 6 µM in assay [3]; 7 µM in assay [4]; 4 µM in assay [5].

Turning to `COc1cc(C(=O)C(=O)N2CCCC[C@H]2C(=O)OC(CCCc2ccccc2)CCCc2ccc[n+]([O-])c2)cc(OC)c1OC` (mixture of isomers) [Compound 22, (R and S)-1-Phenyl-7-(3-pyridyl)-4-heptyl (S)-N-(3,4,5-trimethoxyphenylglyoxyl)pipecolate N-oxide], the IC50 in assay [1] worked out at 1.5 µM; in assay [2] it was 1.6 µM; in assay [3], 2.2 µM; in assay [4], 2.5 µM; in assay [5] it was 2.3 µM.

On to `COc1cc(C(=O)C(=O)N2CCC[C@H]2C(=O)OC(CCCc2ccccc2)CCCc2ccccn2)cc(OC)c1OC` (stereo partly shown) [Compound 2], for which, at FKBP, the Ki came out at 0.095 µM. Further, the IC50 in assay [1] (3 h) stood at 3.5 µM; in assay [2], 1.5 µM; in assay [3] it was 8 µM; in assay [4], 7 µM; in assay [5], 4 µM.

Take `COc1cc(C(=O)C(=O)N2CCCC[C@H]2C(=O)OC(CCCc2ccccc2)CCCc2ccccc2)cc(OC)c1OC` [Compound 3, (S)-1,7-Diphenyl-4-heptanyl N-(3,4,5-trimethoxyphenylglyoxyl)pipecolate]: the IC50 in assay [1] (3 h) was over 8 µM; in assay [2], 2.25 µM; in assay [3], 10 µM; in assay [4], 8.5 µM; in assay [5], 8 µM.

In the case of `COc1cc(C(=O)C(=O)N2CCCC[C@H]2C(=O)OC(CCCc2ccccc2)Cc2ccccc2)cc(OC)c1OC` (stereo partly shown) [Compound 10], the Ki at FKBP turned out to be 0.032 µM. Besides, the IC50 in assay [1] (3 h) came out at 5.5 µM; in assay [2], 4 µM; in assay [3], 5.5 µM; in assay [4], 8 µM; in assay [5], 6 µM.

Regarding `COc1cc(C(=O)C(=O)N2CCCC[C@H]2C(=O)OC(CCCc2ccccc2)CCc2ccccc2)cc(OC)c1OC` (stereo partly shown) [Compound 12], the Ki on FKBP worked out at 0.083 µM. The IC50 in assay [1] (3 h) worked out at 7 µM; in assay [2], 5 µM; in assay [3], 10 µM; in assay [4] it was 10 µM; in assay [5] it was 8.1 µM.

Take `COc1ccc(CCC(CCCc2ccccc2)OC(=O)[C@@H]2CCCCN2C(=O)C(=O)c2ccccc2)cc1` (stereo partly shown) [Compound 14]: the Ki at FKBP turned out to be 0.27 µM. Further, the IC50 in assay [1] (3 h), in assay [2], in assay [3], in assay [4] and in assay [5] was over 10 µM throughout.

Turning to `COc1cc(C(=O)C(=O)N2CCCC[C@H]2C(=O)OC(CCCc2ccccc2)CCCn2cnc3ccccc32)cc(OC)c1OC` (stereo partly shown) [Compound 15], the IC50 in assay [1] was determined as 3 µM; in assay [2], 3 µM; in assay [3], 6 µM; in assay [4], 8 µM; in assay [5], 5 µM.

Turning to `O=C(C(=O)N1CCCC[C@H]1C(=O)OC(CCCc1ccccc1)CCCc1cccnc1)c1ccccc1` (stereo partly shown) [Compound 18], the Ki at FKBP is 0.056 µM. In addition, the IC50 in assay [1] (3 h) is 5 µM; in assay [2], 7 µM; in assay [3], 8 µM; in assay [4], 9 µM; in assay [5], 7 µM.

For the compound `O=C(C(=O)N1CCCC[C@H]1C(=O)OC(CCCc1ccccc1)CCCc1ccccn1)c1ccccc1` (stereo partly shown) [Compound 19], at FKBP, the Ki was 0.05 µM. For the same compound, the IC50 in assay [1] (3 h) is 6 µM; in assay [2], 8 µM; in assay [3] it was 10 µM; in assay [4], 10 µM; in assay [5], 5 µM.

Regarding `COc1cc(C(=O)C(=O)N2CCCC[C@H]2C(=O)OC(CCCc2ccccc2)CCCn2ccc3cccnc32)cc(OC)c1OC` (stereo partly shown) [Compound 23], the IC50 was 5 µM in assay [1]; 7 µM in assay [2]; 7 µM in assay [3]; 6 µM in assay [4]; 3.5 µM in assay [5].

On to `O=C(C(=O)N1CCCC[C@H]1C(=O)OC(CCCc1ccccc1)CCCc1cccnc1)c1cccc(OCc2ccccc2)c1` (stereo partly shown) [Compound 27], for which the Ki on FKBP is 0.015 µM. Besides, the IC50 was 6 µM in assay [1] (3 h); 4 µM in assay [2]; 10 µM in assay [3]; 6 µM in assay [4]; 5 µM in assay [5].

On to `COc1cc(C(=O)C(=O)N2CCCC[C@H]2C(=O)OC(CCCc2ccccc2)c2ccccc2O)cc(OC)c1OC` (stereo partly shown) [Compound 38], for which the IC50 in assay [1] was over 10 µM; in assay [2], 5 µM; in assay [3], over 10 µM; in assay [4], over 10 µM; in assay [5], over 10 µM.

Regarding `COc1cc(C(=O)C(=O)N2CCCC[C@H]2C(=O)OC(CCCc2ccccc2)c2cccnc2)cc(OC)c1OC` (stereo partly shown) [Compound 39], the Ki at FKBP amounted to 0.01 µM. Moreover, the IC50 in assay [1] (3 h) is 6 µM; in assay [2], 5.5 µM; in assay [4] it was 5 µM; in assay [5], 2.5 µM.
